Test results published in US10036033B2, “Method of inhibiting sprouting in plant tissues” (Academia Sinica, priority 2014, dated 2018).

B1: OsFCA: Rice FCA protein, nuclear RNA-binding protein, SEQ ID NO: 1 (protein, listed as Oryza sativa)
chain: MHRGGDRSTDPSSGPAPGSRGGGDGRFGRGPSRWSSGGGGGGSGSPPHRFSRGGGGGGGDGGGGGGGGGRFHPYRGPSDHSGGGGYRSGGGGEYGEPGSGPRHRYGSGRGDHSDHDNRNNYVKLFIGSVPRTATEDDVRPLFEEHGDVVEVALIKDRKTGEQQGCCFVKYATSEEAERAIRALHNQYTLPGAMGPIQVRYADGERERHGAIEHKLFVASLNKQATAKEIEEIFAPYGHVEDVYIMKDGMRQSRGCGFVKFSSREPALAAMSALSGNYVMRGCEQPLIIRFADPKRPRPGGSRGGPAFGGPGFSPRSDAALVIRPTANLDEPRGRHMPPDSWHPSSPRSAPHQFNNFGSDNPMAPKGSTVTSTTDTATFRPQMFSGNGSLSSQTAVPSSSHMGMNPPPMAQGHHLGGQQIPPLQKLPGLPQNFPVQLQNNQLGQPLQGPAQQIGQLQVPQSMGPGSFGQNRLSGQLPVSQPLMQQNASVSAVQVPSAVSNSMQAIPGQQHLPSNVAPQMLQQPVQQMPSQAPQLLLQQQAALQSSYQSSQQAIYQLQQQLQLMQQQQQSNLNHQQPTQGQPVQSSNPGAPNAIIPSNINTIPQQATSPAVPLTCNWTEHTSPEGFKYYYNSITRESKWDKPEEYVLYEQQQQQQQQQKLLLLQQHKQKLAMQQLQSPPQAQTHPAMQPVQQIPQAQQGQQQMQMKQQELNYTQLQTPGAIDPSRIQQGIQSAQERAWKS

How the values were obtained:
[1] = system: ABA induced gene expression (ABRC1-GUS) in rice aleurone cells; test: ABRC1-GUS reporter expression assay in transgenic rice embryoless half-seeds (aleurone cells); type: cell-based, rice (Oryza sativa); conditions: wild type rice aleurone cells; 20 μM ABA, 24 h
Experimental: FIG. 1. FCA-overexpression enhances and FCA-RNAi suppresses ABA induced gene expression in rice aleurone cells. The reporter construct (A) ABRC1-GUS was bombarded into (B) FCA-overexpression and (C) FCA-RNAi transgenic rice embryoless half-seeds. Bars indicate GUS activities ±SE after 24 h of incubation of bombarded seeds in shooting buffer with or without 20 μM ABA.
Rice (Oryza sativa) cultivar Tainung 67 was used in this study. Rice seedlings were grown in Kimura B nutrient solution at 28° C., 16L/8D photoperiod. Barley seeds (Hordeum vulgare L. cv. Himalaya) were used in all the transient assays. Embryoless half-seeds were prepared as described (Gomez-Cadenas et al., 2001).
Rice FCA cDNA clones (GenBank Accession Numbers AK073225 and AK058419) were supplied by Rice Genome Resource Center (RGRC) of National Institute of Agricultural Sciences (NIAS). Coding region of rice FCA was amplified from FCA cDNA clone by PCR. Coding region of barley FCA was amplified from total RNA of barley seed by RT-PCR. For underexpression of FCA, nucleotide number 307-822 of rice FCA ORF and nucleotide number 1532-1945 of barley FCA ORF were amplified. All PCR products were T/A cloned into pCR8/GW/TOPO vector (Invitrogen). Sequences and orientations of inserts in vector were confirmed by sequencing. […]

[2] = system: ABA induced gene expression (ABRC1-GUS) in barley aleurone cells; test: Transient expression assay, ABRC1-GUS reporter, barley aleurone cells; type: cell-based, barley (Hordeum vulgare); conditions: 20 μM ABA, 24 h
From the text: FIG. 2. FCA alters ABA but not GA pathway in barley aleurone cells. (A) Schemes of the reporter and effector constructs used in transient expression assays. (B) FCA-overexpression enhances and (D) FCA-RNAi suppresses ABA induced gene expression in barley aleurone cells. (C and E) GA induced gene expression is not affected. The reporter construct ABRC1-GUS or Amy32b-GUS was cobombarded into barley embryoless half-seeds with (+) or without (−) effector constructs Ubi-HvFCA-RNAi or Ubi-HvFCA. Bars indicate GUS activities ±SE after 24 h of incubation of bombarded embryoless half-seeds in shooting buffer with or without 20 μM ABA or 1 μM GA.
FIG. 9. FCA-overexpression enhances ABA induced gene expression in barley aleurone cells. (A) Schemes of the reporter and effector constructs used in transient expression assays. (B) The reporter construct ABRC1-GUS was cobombarded into barley embryoless half-seeds with (+) or without (−) effector constructs Ubi-HvFCA or Ubi-OsFCA. Bars indicate GUS activities ±SE after 24 h of incubation of bombarded embryoless half-seeds in shooting buffer with (+) or without (−) 10 μM ABA.
Rice (Oryza sativa) cultivar Tainung 67 was used in this study. Rice seedlings were grown in Kimura B nutrient solution at 28° C., 16L/8D photoperiod. Barley seeds (Hordeum vulgare L. cv. Himalaya) were used in all the transient assays. […]

ABI5 = test: In planta two-hybrid study; type: binding
VP1 = molecular target: T1, VP1 (Zea mays, UniProt P26307); test: In planta two-hybrid study; type: binding
T1 sequence (P26307 1-691): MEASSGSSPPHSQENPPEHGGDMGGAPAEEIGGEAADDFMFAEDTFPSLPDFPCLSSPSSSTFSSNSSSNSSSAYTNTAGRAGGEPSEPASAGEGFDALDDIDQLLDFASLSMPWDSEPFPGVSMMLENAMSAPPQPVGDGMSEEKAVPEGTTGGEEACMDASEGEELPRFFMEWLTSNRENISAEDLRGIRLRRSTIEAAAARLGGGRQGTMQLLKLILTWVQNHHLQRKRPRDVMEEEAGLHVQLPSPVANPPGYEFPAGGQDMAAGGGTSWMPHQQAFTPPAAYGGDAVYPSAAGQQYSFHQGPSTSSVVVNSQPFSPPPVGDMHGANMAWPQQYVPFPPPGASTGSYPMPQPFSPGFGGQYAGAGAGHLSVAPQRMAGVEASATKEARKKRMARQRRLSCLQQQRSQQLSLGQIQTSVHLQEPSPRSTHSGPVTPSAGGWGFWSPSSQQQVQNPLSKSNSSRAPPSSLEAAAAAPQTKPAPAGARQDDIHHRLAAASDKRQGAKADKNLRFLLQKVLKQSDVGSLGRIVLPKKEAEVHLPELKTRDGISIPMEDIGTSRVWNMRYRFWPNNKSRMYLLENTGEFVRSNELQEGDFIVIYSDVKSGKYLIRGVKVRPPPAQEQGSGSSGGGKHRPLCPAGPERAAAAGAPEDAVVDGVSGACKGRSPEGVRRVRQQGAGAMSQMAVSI

Molecule	ABRC1-GUS reporter induction by ABA treatment [1]	ABRC1-GUS reporter induction by ABA treatment [2]	Interaction with ABI5 (ABI5)	Interaction with VP1 (VP1)
CC1=CC(=O)CC(C)(C)C1(O)/C=C/C(C)=C\C(=O)O (stereo not shown) [ABA]	highly induced	highly induced		
B1			not with ABI5 directly	interacts with VP1
